Entries after “also recorded” stand apart in the source; their conditions may differ. Peptide text beside a SMILES is read from it. * marks the point of attachment. Cbz = O=C(OCc1ccccc1)*; CH2F = FC*
Legend:
[1] = biological target: T1, ASC-mediated PC1 activation (Homo sapiens, UniProt P29466); assay: ASC-mediated PC1 reconstitution in vitro assay (primary screening); assay type: biochemical; conditions: PC1 50 nM, ASC 300 nM, substrate Ac-WEHD-AFC; read-out: IC50
T1 construct: His; made in house; host or cells: PC1: Sf9 insect cells (baculovirus)
T1 sequence (P29466 1-404): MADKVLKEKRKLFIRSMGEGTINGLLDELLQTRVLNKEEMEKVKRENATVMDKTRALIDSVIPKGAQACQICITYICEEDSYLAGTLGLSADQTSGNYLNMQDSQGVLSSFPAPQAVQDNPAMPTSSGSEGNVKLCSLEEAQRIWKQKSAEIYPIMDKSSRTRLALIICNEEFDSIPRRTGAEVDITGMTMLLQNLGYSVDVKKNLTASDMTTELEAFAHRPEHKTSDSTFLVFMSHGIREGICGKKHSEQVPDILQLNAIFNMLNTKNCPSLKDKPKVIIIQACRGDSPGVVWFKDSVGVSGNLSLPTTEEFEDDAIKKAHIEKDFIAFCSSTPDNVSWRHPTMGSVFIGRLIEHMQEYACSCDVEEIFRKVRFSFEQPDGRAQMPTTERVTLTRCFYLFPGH
Procedure: Recombinant PC1 (50 nM) was preincubated with the indicated concentrations of compounds for 20 min at RT in Assay Buffer (20 mM HEPES pH 7.5, 10 mM KCI, 1.5 mM MgCl2, 1mM EDTA, 1 mM EGTA, 1 mM DTT). Then 300 nM of ASC were added and incubated for another 10 min period. Caspase-1 activation was measured using fluorogenic substrate Ac-WEHD-AFC (80 µM; Enzo Life Sciences) by continuously monitoring the release of the AFC (7-Amino-4-trifluoromethylcoumarin) product in a Wallac Victor workstation. The compounds were initially tested at 20 µM with 1% of DMSO. Data are reported as the percentage of inhibition compared with the absence of the compound.
The materials and methods employed in these experiments are now described.

NLRP3 inflammasome [2] = assay: inflammasome activation cellular assay, LPS plus ATP, THP-1 cells; assay type: cell-based, human; conditions: THP-1, LPS + ATP; pyroptosis / cell viability; MM01 1, 2.5 or 5 µM, VX-765 5 µM
Procedure: The MM01 compound was evaluated in the THP-1, or PMA-differentiated THP-1 cells (50 nM PMA for 24h) stimulated with lipopolysaccharide (LPS) plus adenosine triphosphate (ATP) to stimulate ASC-dependent inflammasomes NLRP3. Briefly, 1x10^6 cells were seeded in 6-well plates in 1 mL RPMI media that contained 1% FBS. Cells were either mock-treated or primed with compounds at the indicated concentrations for 30 min, followed by treatment with 100 ng/mL LPS (Sigma) and 2.5 mM ATP (Sigma) for 6 h at 37°C. In the case of nigericin stimulation, cells were primed with LPS for 3h, and then 10 µM nigericin (Sigma) was added for 30 min. Supernatants were harvested and clarified by centrifugation at 1500 rpm at RT, and a cytokine analysis was performed. Both IL-1β secretion and the release of IL-18were monitored by an ELISA assay (BD OptEIA™ Human IL-1β ELISA Kit and Human IL-18 Module Set eBioscience) following the manufacturer's instructions. Cell viability was analyzed in parallel by evaluating the release of lactate dehydrogenase (LDH) according to a commercial kit (CytoTox-ONE™ Homogeneous Membrane Integrity Assay; Promega). The release of LDH was calculated using the formula: the release of LDH (%) = 100x (Abs490 treated -Abs490 untreated cells)/ Abs490 untreated cells lysed with Triton 9% (maximum release of LDH).
The supernatants of the treated cells were precipitated by the chloroform-methanol method. Pellets were obtained by lysing cells in 25 mM of Tris-HCI pH 7.4, 1 mM EDTA, 1 mM EGTA and 1% SDS, plus protease and phosphatase inhibitors. The protein concentration was determined by the BCA protein assay. Samples were separated in a 14% SDS-PAGE gel, transferred to a nitrocellulose membrane and blocked with 5% skimmed milk for 1 h. Then the membrane was incubated overnight with primary antibodies: α-casp1 (1:1000; Cell Signaling 2225), α-IL-1β (1:1000; Acris R1130P), α-NLRP3 (1:1000; Cell Signaling 15101), α-tubulin (1:3000; Abcam ab6160) at 4°C. Membranes were washed and probed with the appropriate secondary antibody conjugated with peroxidase for enhanced chemiluminescence detection (Amersham Pharmacia Biotech).

[3] = tested on: ASC specks in THP1-ASC-GFP cells; assay: ASC speck assay; assay type: cell-based, human; conditions: THP-1 ASC GFP, LPS 100 ng/mL + nigericin 10 µM; MM01 10 µM, VX-765 5 µM
Procedure: THP1-ASC-GFP cells were seeded at 1×10^6/ml the day prior to use in experiments on 35 mm glass-bottom culture dishes. The following day medium was replaced containing the indicated inhibitors or vehicle for 30 min. Cells were then primed with 100 ng/ml LPS for 3h and stimulated with 10 µM nigericin for 30 min. Samples were fixed in 4% paraformaldehyde (PFA) for 10 min at RT and washed several times. Coverslips were prepared in mounting medium plus DAPI and analyzed in a Leica SP8 confocal microscope.

NLRP3 inflammasome [4] = assay: human PBMCs cellular assay, LPS plus ATP; assay type: cell-based; conditions: human PBMCs, LPS and ATP, VX-765 5 µM
Procedure: Human peripheral blood mononuclear cells (PBMCs) are lymphocytes and monocytes. PBMCs were separated from the whole blood by a density gradient centrifugation method using Ficoll Histopaque. Purified PBMCs were plated in 24-well plates at 5000000 cells/well in free-serum RPMI medium. Cells were primed for 3 h with 10 ng/ml pure LPS followed by 4 h with compounds and 5 mM ATP. Supernatants were harvested and clarified by centrifugation at 1500 rpm at RT and cytokine and caspase-1 activation analysis was performed as previously described.

Recombinant caspase-1 = biological target: T2, Recombinant caspase-1 (Homo sapiens, UniProt P29466); assay: caspase-1 in vitro activation assay (secondary screening); assay type: biochemical; conditions: preactivated recombinant caspase-1
T2 sequence (P29466 120-297 limits assumed): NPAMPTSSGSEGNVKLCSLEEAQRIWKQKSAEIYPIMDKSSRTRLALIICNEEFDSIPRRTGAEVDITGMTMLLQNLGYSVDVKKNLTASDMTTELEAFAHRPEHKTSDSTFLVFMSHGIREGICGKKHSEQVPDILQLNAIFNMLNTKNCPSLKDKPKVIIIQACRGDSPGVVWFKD
T2 sequence (P29466 317-404 limits assumed): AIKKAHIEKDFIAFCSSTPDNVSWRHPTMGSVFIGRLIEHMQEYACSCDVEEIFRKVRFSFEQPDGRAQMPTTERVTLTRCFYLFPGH
Procedure: Recombinant caspase-1 (50 nM) was incubated with the indicated concentrations of compounds for 20 min at RT in Assay Buffer. Then fluorogenic substrate Ac-WEHD-AFC (80 µM) was added, and activity was monitored in a Wallac Victor workstation. Data are reported as the percentage of inhibition compared with the absence of the inhibitor.

For CCCCN1C(=O)/C(=C2\SC(=S)N(Cc3ccco3)C2=O)c2cc(Br)ccc21, the IC50 [1] was 300 ± 100 nM.

In the case of COCCN1C(=O)/C(=C2/C(=O)Nc3ccc(Br)cc32)SC1=S, the IC50 [1] is reported as 1500 ± 800 nM.

For CCO[C@@H]1OC(=O)C[C@@H]1NC(=O)[C@@H]1CCCN1C(=O)[C@@H](NC(=O)c1ccc(N)c(Cl)c1)C(C)(C)C [VX-765, reference compound], the LDH release (NLRP3 inflammasome [2]) was “does not decrease; also recorded: no recovery of cell viability”, the ASC speck formation [3] was “not inhibited” and the inflammatory cell death (NLRP3 inflammasome [4]; LDH release) was “did not protect”. The cytokine release (NLRP3 inflammasome [4]) was “able to inhibit”.

In the case of CC(NC(=O)C(NC(=O)OCc1ccccc1)C(C)C)C(=O)NC(CC(=O)O)C(=O)CF (stereo not drawn) [zVAD, reference compound] (Cbz-Val-Ala-Asp-CH2F; configuration not given here), the caspase-1 activity (Recombinant caspase-1) is reported as “inhibits”.
